From the supplement of paper PMC11061612

What was measured:
BT-20 (Breast Carcinoma) = assay: Bliss excess, mean over the matrix (fraction); higher = more synergy
In short: (§1)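 Bliss excess equals the observed combination effect minus the expected value EA + EB − EA·EB, where EA and EB are the effects of each agent alone. Combination Emax is the second-highest inhibition within the matrix. Inhibition was scaled from CellTiter-Glo 2.0 luminescence, with 0 set by vehicle wells and 1 by blank wells, after 72 hours of two-drug dosing of cells plated in 1536-well plates.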

[1] = test system: DG-75 (Burkitt's Lymphoma); assay: as above
In short: as §1

[2] = test system: EBC-1 (Squamous Cell Lung Carcinoma); assay: as above
In short: as §1

[3] = test system: EMC-BAC-2 (Non-Small Cell Lung Carcinoma); assay: as above
In short: as §1

GI-1 (Glioblastoma) = assay: as above
In short: as §1

GOTO (Neuroblastoma) = assay: as above
In short: as §1

[4] = test system: HuP-T3 (Pancreatic Carcinoma); assay: as above
In short: as §1

[5] = test system: KP-2 (Pancreatic Carcinoma); assay: as above
In short: as §1

[6] = test system: KU-19-19 (Bladder Carcinoma); assay: as above
In short: as §1

NH-12 (Neuroblastoma) = assay: as above
In short: as §1

[7] = test system: OCUM-1 (Gastric Carcinoma); assay: as above
In short: as §1

[8] = test system: TGBC11TKB (Gastric Carcinoma); assay: as above
In short: as §1

[9] = test system: VMRC-LCD (Lung Adenocarcinoma); assay: as above
In short: as §1

[10] = test system: JHH-7 (Hepatocellular Carcinoma); assay: combination Emax (second highest fraction inhibited in the dose matrix, 72 h); higher = more inhibition; extreme values may be limits of the assay
In short: as §1

[11] = test system: KU-19-19 (Bladder Carcinoma); assay: as above
In short: as §1

[12] = test system: NCI-H2405 (Lung Adenocarcinoma); assay: as above
In short: as §1

[13] = test system: NCI-H322M (Lung Adenocarcinoma); assay: as above
In short: as §1

[14] = test system: OCUB-M (Breast Carcinoma); assay: as above
In short: as §1

[15] = test system: SCC-3 (B-Cell Non-Hodgkin's Lymphoma); assay: as above
In short: as §1

[16] = test system: SCC-9 (Oral Cavity Carcinoma); assay: as above
In short: as §1

| Structure (SMILES) | Bliss excess (BT-20 (Breast Carcinoma)) | Bliss excess [1] | Bliss excess [2] | Bliss excess [3] | Bliss excess (GI-1 (Glioblastoma)) | Bliss excess (GOTO (Neuroblastoma)) | Bliss excess [4] | Bliss excess [5] | Bliss excess [6] | Bliss excess (NH-12 (Neuroblastoma)) | Bliss excess [7] | Bliss excess [8] | Bliss excess [9] | combination Emax [10] | combination Emax [11] | combination Emax [12] | combination Emax [13] | combination Emax [14] | combination Emax [15] | combination Emax [16] |
| --- | --- | --- | --- | --- | --- | --- | --- | --- | --- | --- | --- | --- | --- | --- | --- | --- | --- | --- | --- | --- |
| Cc1c2c(nn1C)CSCc1cc(n(C)n1)CSc1cc(c3ccccc3c1)OCCCc1c(C(=O)O)n(C)c3c-2c(Cl)ccc13 [AZD5991] + CN(C)CCCOc1ccc(-c2ccc3ncc4c(c3c2)n(C2CCOCC2)c(=O)n4C)cn1 [AZD0156] (first compound max 1 µM, 7x7, partner max 1 µM) | 0.0258 | -0.0286 | 0.0581 | -0.0313 | 0.0067 | -0.0418 | -0.0479 | -0.0125 | 0.0263 | -0.0511 | -0.016 | 0.007 | 0.0165 | 0.14 | 0.253 | 0.228 | 0.279 | 0.949 | 0.396 | 0.269 |
| Cc1c2c(nn1C)CSCc1cc(n(C)n1)CSc1cc(c3ccccc3c1)OCCCc1c(C(=O)O)n(C)c3c-2c(Cl)ccc13 [AZD5991] + C[C@@H]1COCCN1C2=NC(=NC(=C2)C3(CC3)[S@](=N)(=O)C)C4=C5C=CNC5=NC=C4 [AZD6738] (first compound max 1 µM, 7x7, partner max 10 µM) | 0.0977 | -0.0464 | 0.039 | 0.066 | -0.0238 | -0.0213 | -0.0053 | 0.0446 | -0.0013 | 0.0031 | -0.0052 | -0.0218 | 0.0179 | 0.268 | 0.767 | 0.353 | 0.94 | 1 | 0.957 | 0.331 |
| Cc1c2c(nn1C)CSCc1cc(n(C)n1)CSc1cc(c3ccccc3c1)OCCCc1c(C(=O)O)n(C)c3c-2c(Cl)ccc13 [AZD5991] + C[C@@H](Nc1cc(F)cc(F)c1)c1cc(C(=O)N(C)C)cc2c(=O)cc(N3CCOCC3)oc12 [AZD8186] (first compound max 1 µM, 7x7, partner max 3 µM) | 0.0382 | 0.0008 | 0.0298 | -0.0336 | 0.0556 | -0.0589 | -0.0622 | 0.0193 | 0.0033 | 0.0311 | -0.0302 | 0.0005 | -0.024 | 0.169 | 0.212 | 0.165 | 0.414 | 0.986 | 0.409 | 0.378 |
| Cc1c2c(nn1C)CSCc1cc(n(C)n1)CSc1cc(c3ccccc3c1)OCCCc1c(C(=O)O)n(C)c3c-2c(Cl)ccc13 [AZD5991] + Cc1cc2ncnn2cc1Nc1ncc2c(n1)n(C1CCOCC1)c(=O)n2C [AZD7648] (first compound max 1 µM, 7x7, partner max 10 µM) | -0.0139 | 0.0116 | -0.0127 | -0.0141 | 0.0021 | -0.02 | -0.0677 | -0.0103 | 0.0025 | -0.061 | -0.0093 | -0.0954 | -0.0302 | 0.164 | 0.26 | 0.204 | 0.459 | 0.983 | 0.308 | 0.26 |
| Cc1c2c(nn1C)CSCc1cc(n(C)n1)CSc1cc(c3ccccc3c1)OCCCc1c(C(=O)O)n(C)c3c-2c(Cl)ccc13 [AZD5991] + Cn1cnc2c(F)c(Nc3ccc(Br)cc3Cl)c(C(=O)NOCCO)cc21 [Selumetinib] (first compound max 1 µM, 7x7, partner max 3 µM) | 0.153 | -0.0023 | -0.0019 | 0.0081 | -0.0491 | 0.0177 | 0.032 | 0.137 | 0.0759 | 0.0026 | -0.0034 | 0.0592 | -0.0229 | 0.278 | 0.885 | 0.483 | 0.566 | 0.979 | 0.639 | 0.654 |
| C[C@@H]1COCCN1c1cc(C2([S@](C)(=N)=O)CC2)nc(-c2ccnc3[nH]ccc23)n1 [AZD6738] + O=C(c1cc(Cc2n[nH]c(=O)c3ccccc23)ccc1F)N1CCN(C(=O)C2CC2)CC1 [Olaparib] (first compound max 10 µM, 7x7, partner max 10 µM) | 0.0472 | -0.0619 | -0.0153 | -0.007 | 0.0039 | -0.0645 | 0.0066 | 0.0024 | -0.032 | -0.0308 | -0.0399 | -0.0236 | -0.0231 | 0.339 | 0.767 | 0.28 | 0.697 | 0.634 | 0.994 | 0.314 |
| Cc1cc2ncnn2cc1Nc1ncc2c(n1)n(C1CCOCC1)c(=O)n2C [AZD7648] + C=CCn1c(=O)c2cnc(Nc3ccc(N4CCN(C)CC4)cc3)nc2n1-c1cccc(C(C)(C)O)n1 [AZD1775] (first compound max 10 µM, partner max 1 µM) | -0.0186 | -0.0652 | -0.0041 | 0.0058 | 0.0071 | -0.0421 | -0.0189 | -0.014 | -0.0201 | 0.0005 | -0.0244 | -0.0551 | -0.0057 | 0.392 | 0.749 | 0.192 | 0.923 | 0.448 | 0.815 | 0.293 |
| Cc1cc2ncnn2cc1Nc1ncc2c(n1)n(C1CCOCC1)c(=O)n2C [AZD7648] + CCN(CCO)CCCOc1ccc2c(Nc3cc(CC(=O)Nc4cccc(F)c4)[nH]n3)ncnc2c1 [AZD2811] (first compound max 10 µM, 7x7, partner max 1 µM) | -0.0432 | 0.0393 | 0.0147 | 0.0514 | 0.043 | 0.0582 | 0.0003 | -0.0206 | 0.0227 | -0.001 | -0.0093 | 0.0666 | -0.0267 | 0.296 | 0.489 | 0.188 | 0.352 | 0.764 | 0.338 | 0.342 |
| Cc1cc2ncnn2cc1Nc1ncc2c(n1)n(C1CCOCC1)c(=O)n2C [AZD7648] + CN(C)CCCOc1ccc(-c2ccc3ncc4c(c3c2)n(C2CCOCC2)c(=O)n4C)cn1 [AZD0156] (first compound max 10 µM, 7x7, partner max 1 µM) | 0.0154 | 0.0226 | 0.0204 | 0.0137 | 0.0472 | -0.0264 | -0.0065 | -0.0182 | 0.0009 | -0.0153 | 0.0016 | -0.0224 | 0.0122 | 0.177 | 0.212 | 0.183 | 0.368 | 0.4 | 0.299 | 0.24 |
| Cc1cc2ncnn2cc1Nc1ncc2c(n1)n(C1CCOCC1)c(=O)n2C [AZD7648] + C[C@@H]1COCCN1C2=NC(=NC(=C2)C3(CC3)[S@](=N)(=O)C)C4=C5C=CNC5=NC=C4 [AZD6738] (first compound max 10 µM, 7x7, partner max 10 µM) | 0.0399 | -0.0477 | 0.0513 | 0.0575 | 0.018 | -0.0205 | -0.0453 | 0.0004 | -0.0127 | -0.0035 | 0.009 | 0.0009 | 0.0143 | 0.369 | 0.782 | 0.241 | 0.944 | 0.49 | 0.857 | 0.353 |
| Cc1cc2ncnn2cc1Nc1ncc2c(n1)n(C1CCOCC1)c(=O)n2C [AZD7648] + O=C(c1cc(Cc2n[nH]c(=O)c3ccccc23)ccc1F)N1CCN(C(=O)C2CC2)CC1 [Olaparib] (first compound max 10 µM, 7x7, partner max 10 µM) | -0.0492 | 0.0465 | -0.0167 | -0.0399 | -0.0013 | 0.0388 | -0.0254 | -0.0017 | -0.0153 | 0.0165 | -0.0571 | -0.0447 | -0.0443 | 0.159 | 0.251 | 0.093 | 0.325 | 0.256 | 0.435 | 0.0663 |
| NC1(C(=O)N[C@@H](CCO)c2ccc(Cl)cc2)CCN(c2ncnc3[nH]ccc23)CC1 [Capivasertib] + CC(=O)c1c(C)c2cnc(Nc3ccc(N4CCNCC4)cn3)nc2n(C2CCCC2)c1=O [Palbociclib] (first compound max 10 µM, 7x7, partner max 10 µM) | -0.0038 | 0.0406 | 0.06 | -0.0727 | 0.0117 | 0.0599 | -0.0457 | -0.0261 | 0.0041 | 0.0124 | -0.0194 | -0.0358 | -0.0153 | 0.302 | 0.536 | 0.612 | 0.639 | 0.994 | 0.479 | 0.289 |
| NC1(C(=O)N[C@@H](CCO)c2ccc(Cl)cc2)CCN(c2ncnc3[nH]ccc23)CC1 [Capivasertib] + CC(C)n1c(=O)n(C)c2cnc3cc(F)c(-c4ccc(OCCCN5CCCCC5)nc4)cc3c21 [AZD1390] (first compound max 10 µM, 7x7, partner max 0.3 µM) | -0.0315 | -0.0006 | -0.0046 | -0.0761 | -0.0226 | -0.0465 | -0.0444 | -0.0612 | -0.0939 | -0.134 | -0.039 | -0.0598 | -0.0297 | 0.315 | 0.266 | 0.274 | 0.313 | 1 | 0.216 | 0.26 |
| NC1(C(=O)N[C@@H](CCO)c2ccc(Cl)cc2)CCN(c2ncnc3[nH]ccc23)CC1 [Capivasertib] + CCN(CCO)CCCOc1ccc2c(Nc3cc(CC(=O)Nc4cccc(F)c4)[nH]n3)ncnc2c1 [AZD2811] (first compound max 10 µM, 7x7, partner max 1 µM) | -0.0003 | 0.04 | 0.0429 | -0.0124 | 0.022 | 0.0047 | -0.0317 | -0.0433 | 0.0011 | -0.0439 | 0.0378 | -0.0987 | 0.0111 | 0.294 | 0.515 | 0.329 | 0.338 | 1 | 0.309 | 0.275 |
